Legend:
SOAT1 = biological target: T1, SOAT1 (Homo sapiens, UniProt P35610); test: 2D thermal proteome profiling (TMT mass spectrometry); format: cell-based; settings: intact THP-1 cells, […] min, […] °C; stabilization; text value approximate
T1 construct: endogenous full-length protein in THP-1 cells, identified by mass spectrometry
T1 sequence (P35610 1-550): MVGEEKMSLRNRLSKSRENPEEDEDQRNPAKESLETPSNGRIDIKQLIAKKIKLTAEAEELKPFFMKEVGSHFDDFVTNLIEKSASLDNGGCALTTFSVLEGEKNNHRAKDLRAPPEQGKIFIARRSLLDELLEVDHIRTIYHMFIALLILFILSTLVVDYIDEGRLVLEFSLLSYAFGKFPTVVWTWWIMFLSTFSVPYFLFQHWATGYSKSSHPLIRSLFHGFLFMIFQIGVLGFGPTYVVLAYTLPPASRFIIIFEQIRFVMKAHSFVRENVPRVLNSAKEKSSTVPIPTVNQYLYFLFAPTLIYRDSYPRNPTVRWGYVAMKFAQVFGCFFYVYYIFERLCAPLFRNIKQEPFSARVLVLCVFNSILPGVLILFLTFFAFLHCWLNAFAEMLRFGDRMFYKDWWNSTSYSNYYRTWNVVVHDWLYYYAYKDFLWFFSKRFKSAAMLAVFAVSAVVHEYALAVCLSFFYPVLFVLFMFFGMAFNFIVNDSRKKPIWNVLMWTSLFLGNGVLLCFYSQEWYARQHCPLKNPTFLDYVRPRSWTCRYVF
Excerpt: 2D thermal proteome profiling (TMT mass spectrometry) on SOAT1 | stabilized SOAT1 and several members of the sterol biosynthesis pathway

FYTTD1 [1] = biological target: T2, FYTTD1 (Homo sapiens, UniProt Q96QD9); test: thermal shift of spiked recombinant protein, mass spectrometry read-out; format: binding; set-up: commercial recombinant protein (Abcam ab164533); settings: […] JQ1, […] protein in background of recombinant protein domains, […] HEPES pH […] NaCl, […] glycerol, […] Tween20; destabilization
T2 sequence (Q96QD9 1-318): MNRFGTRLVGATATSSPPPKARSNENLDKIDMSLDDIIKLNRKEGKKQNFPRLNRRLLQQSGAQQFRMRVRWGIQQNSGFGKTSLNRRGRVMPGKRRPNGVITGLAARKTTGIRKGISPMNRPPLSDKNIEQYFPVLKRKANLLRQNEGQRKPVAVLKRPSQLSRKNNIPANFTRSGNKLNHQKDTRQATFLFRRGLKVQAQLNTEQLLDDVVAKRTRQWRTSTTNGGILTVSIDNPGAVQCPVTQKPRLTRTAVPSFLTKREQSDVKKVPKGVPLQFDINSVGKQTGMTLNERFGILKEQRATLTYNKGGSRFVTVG

FYTTD1 [2] = biological target: T2, FYTTD1; test: 2D thermal proteome profiling (TMT mass spectrometry); format: cell-based; set-up: endogenous protein in THP-1 cells, identified by mass spectrometry; settings: intact THP-1 cells, […] min, […] °C; destabilization; text value approximate
Excerpt: 2D thermal proteome profiling (TMT mass spectrometry) on FYTTD1 | JQ1 further caused dose-dependent destabilization of FYTTD1

NUDT1 = biological target: T3, NUDT1 (Homo sapiens, UniProt P36639); test: as above; format: cell-based; settings: intact THP-1 cells, […] min, […] °C; stabilization
T3 construct: endogenous protein in THP-1 cells, identified by mass spectrometry

BRD3 = biological target: T4, BRD3 (Homo sapiens, UniProt Q15059); test: as above; format: cell-based; settings: intact THP-1 cells, […] min, […] °C; stabilization
T4 construct: endogenous full-length protein in THP-1 cells or lysate, identified by mass spectrometry
T4 sequence (Q15059 2-726): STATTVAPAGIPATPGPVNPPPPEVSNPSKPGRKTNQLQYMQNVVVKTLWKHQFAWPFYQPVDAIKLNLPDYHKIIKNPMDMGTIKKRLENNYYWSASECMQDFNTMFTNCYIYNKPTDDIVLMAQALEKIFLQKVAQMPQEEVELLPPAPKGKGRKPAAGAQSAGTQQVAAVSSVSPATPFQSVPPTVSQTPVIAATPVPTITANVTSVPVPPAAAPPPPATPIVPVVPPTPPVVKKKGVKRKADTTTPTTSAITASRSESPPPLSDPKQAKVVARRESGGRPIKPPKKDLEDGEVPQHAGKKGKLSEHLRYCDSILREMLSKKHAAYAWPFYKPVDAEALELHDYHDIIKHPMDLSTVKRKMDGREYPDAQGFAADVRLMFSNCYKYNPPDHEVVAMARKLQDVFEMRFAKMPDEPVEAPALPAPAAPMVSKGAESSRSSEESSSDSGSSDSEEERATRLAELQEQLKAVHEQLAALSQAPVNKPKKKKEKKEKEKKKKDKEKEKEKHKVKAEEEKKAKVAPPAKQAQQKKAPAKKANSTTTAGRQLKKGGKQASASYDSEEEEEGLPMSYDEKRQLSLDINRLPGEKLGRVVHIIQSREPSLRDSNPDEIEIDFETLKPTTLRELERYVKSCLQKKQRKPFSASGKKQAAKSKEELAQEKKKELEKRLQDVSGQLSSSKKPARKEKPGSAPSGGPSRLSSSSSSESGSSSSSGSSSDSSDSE

Row | Compound | EC50 (SOAT1) [nM] | thermal shift (FYTTD1 [1]) | EC50 (FYTTD1 [2]) [nM] | pEC50 (NUDT1) | pEC50 (BRD3)
1 | Cc1sc2c(c1C)C(c1ccc(Cl)cc1)=N[C@@H](CC(=O)OC(C)(C)C)c1nnc(C)n1-2 [JQ1] | ~1000 | Thermal shift assays with recombinantly expressed FYTTD1 confirmed destabilization by JQ1 binding | ~1000 | – | –
2 | COc1cc2c(cc1-c1c(C)noc1C)ncc1[nH]c(=O)n([C@H](C)c3ccccn3)c12 [I-BET151, 7-(3,5-dimethylisoxazol-4-yl)-8-methoxy-1-((R)-1-(pyridin-2-yl)ethyl)-1H-imidazo[4,5-c]quinolin-2(3H)-one] | – | – | – | 5.3 | 5.9

Reference: publication PMC5871718 (Cell, 2018)
